Literature values in US6017948A, “Water-miscible pharmaceutical compositions” (Supergen, Inc., priority 1998, dated 2000).

How the values were obtained:
animals = conditions: chronic high doses (more than 100 mg/kg)
[1] = test system: refractory ovarian cancer; conditions: single-agent phase II
head and neck cancer = conditions: single-agent phase II
[2] = test system: previously untreated non-small-cell lung cancer; conditions: single-agent phase II
breast cancer = conditions: single-agent phase II

## CCCCC(CC)COC(=O)c1ccccc1C(=O)OCC(CC)CCCC (stereo not drawn) [DEHP, diethylhexylphthalate]
animals
  toxic effects: growth retardation, liver weight increase, liver damage, testicular atrophy, teratogenicity, and carcinogenicity

## CC(=O)O[C@H]1C(=O)[C@@]2(C)[C@H]([C@H](OC(=O)c3ccccc3)[C@]3(O)C[C@H](OC(=O)[C@H](O)[C@@H](NC(=O)c4ccccc4)c4ccccc4)C(C)=C1C3(C)C)[C@]1(OC(C)=O)CO[C@@H]1C[C@@H]2O [paclitaxel]
[1]
  response rates (complete and partial): Encouraging response rates
Head and neck cancer
  response rates (complete and partial): Encouraging response rates
Tubulin polymer
  effect on tubulin polymer / microtubule assembly: stabilizes the tubulin polymer and promotes microtubule assembly
[2]
  response rates (complete and partial): Encouraging response rates
Breast cancer
  response rates (complete and partial): Encouraging response rates
